# Assays:
# C57BL/6 mouse = test: Assessment of glucose tolerance improvement effect in mouse; assay type: in vivo; settings: 2 h; 10 mg/kg oral, 30 min before oral glucose 2 g/kg; male C57BL/6 mouse; blood glucose AUC
# Method: <Experimental Example 2>Assessment of glucose tolerance improvement effect in mouse
# As one of anti-diabetic effect indicators, the glucose tolerance improvement effect of the above compounds was evaluated in 7-week male laboratory mouse (C57BL/6 mouse), as the effect of improving postprandial glycemic control ability.
# The laboratory mouse was fasted from the day before the experiment for 16-17 hours. The compound of the present invention was orally administered 30 minutes before administrating glucose, and after 30 minutes, a glucose solution (2 g/kg/10 ml) was orally administered. A drug was prepared by suspending in a 10% Gelucire solution. At the times immediately before drug administration, immediately before glucose solution administration, 15 minutes, 30 minutes, 60 minutes, 90 minutes, and 120 minutes after glucose administration, the whole blood glucose levels was measured from tail vein using a blood glucose meter (AccuChek Active, Roche Diagnostics), and the area under the curve of a temporal blood glucose curve was calculated. From the calculated area under the blood glucose curve, the area under the blood glucose curve of a negative control group to which no glucose solution was administered was subtracted, and inhibitory activity against blood glucose increase of a control group to which only the 10% Gelucire solution and glucose solution were administered was calculated as a percentage, thereby evaluating the glucose tolerance improvement efficacy of a drug.
# The results are shown in Table 3, in which the glucose tolerance improvement effect represented at a dose of 10 mg/kg was represented by classifying into three groups, under 30%, more than 30% under 40%, and more than 40%. A significant glucose tolerance improvement effect was identified in 22 compounds on which the experiment was carried out, and among those compounds, 16 compounds represented an excellent in vivo activity of 30% inhibitory dose of 10 mg/kg or less. In the following Table 3, A represents an inhibitory activity more than 40%, B represents an inhibitory activity more than 30% under 40% and C represents an inhibitory activity under 30%.
# Human GPR119 = molecular target: T1, Human GPR119 (Homo sapiens, UniProt Q8TDV5); test: Human GPR119 activation assay (cAMP, HTRF); assay type: cell-based; settings: HEK293 cells transiently expressing human GPR119, relative to maximum effect of OEA; for Emax at 0.001 µM / Emax at 0.01 µM: 1 h, read-out: hGPR119 activation ability (cAMP assay) Relative Response % vs OEA
# T1 construct: host or cells: HEK293 (ATCC)
# T1 sequence (Q8TDV5 1-335): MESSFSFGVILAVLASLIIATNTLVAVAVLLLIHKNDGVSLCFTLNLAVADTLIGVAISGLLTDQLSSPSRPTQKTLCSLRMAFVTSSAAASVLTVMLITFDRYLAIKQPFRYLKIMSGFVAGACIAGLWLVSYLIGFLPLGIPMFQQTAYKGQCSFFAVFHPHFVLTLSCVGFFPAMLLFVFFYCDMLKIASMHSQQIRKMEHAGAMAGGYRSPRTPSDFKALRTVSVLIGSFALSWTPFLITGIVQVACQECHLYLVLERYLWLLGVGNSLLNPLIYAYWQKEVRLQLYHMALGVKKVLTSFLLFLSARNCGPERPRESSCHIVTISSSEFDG
# Excerpt: <Experimental Example 1>Human GPR119 activation assay
# Human GPR119 was temporarily expressed on cells, thereby quantifying the amount of cyclic adenosine 3′,5′-monophosphate (cAMP) increased upon activating GPR119 by the compound of the present invention, using the product from Cysbio, by a method of HTRF (homogeneous time resolved fluorescence), and such quantification was used to refer to efficacy on GPR119 activation.
# Human GPR119 expression vector (Origene) was overexpressed in […] renal epithelial cells (HEK293) (ATCC), and the cells were stabilized for 48 hours. With a solution of 11.1 mM glucose, 0.1% bovine serum albumin, and 0.5 mM IBMX (3-isobutyl-1-methylxanthine) which is a phosphodiesterase inhibitor being added to a KRBH (Krebs-Ringer Bicarbonate HEPES; Hou ZQ. et al., Mol Cell Endocrinol, 2008(291):71-78) buffer, the cells were pre-treated for 10 minutes. Thereafter, the cells were treated with the same solution containing a drug for 60 minutes, then the supernatant was removed, and the increase in cAMP in cells was quantified using a Cysbio cAMP HiRange kit.
# As to the maximum efficacy of compounds tested, multiple concentration assessment for the compounds of the present invention was carried out, thereby assessing the relative activation level (%) to the maximum effect of oleoylethanolamide (OEA), an endogenous ligand of GPR119.
SMILES,Emax at 0.001 µM (Human GPR119; 1 nM) [%],Emax at 0.01 µM (Human GPR119; 10 nM) [%],hGPR119 activation ability (cAMP assay) Relative Response % vs OEA (Human GPR119; 1 nM) [%],hGPR119 activation ability (cAMP assay) Relative Response % vs OEA (Human GPR119; 10 nM) [%],inhibition in vivo at 10 mg/kg (C57BL/6 mouse) [%]
"CCc1cnc(N2CCC(CCCOc3cc(F)c(C4=NC[C@H](C)O4)c(F)c3)CC2)nc1 [Example 4, (S)-2-(4-(3-(1-(5-ethylpyrimidin-2-yl)piperidin-4-yl)propoxy)-2,6-difluorophenyl)-5-methyl-4,5-dihydrooxazole]",79.6,167,–,–,< 30
"CCc1cnc(N2CCC(CCCOc3cc(F)c(C4=NC[C@@H](C)O4)c(F)c3)CC2)nc1 [Example 5, (R)-2-(4-(3-(1-(5-ethylpyrimidin-2-yl)piperidin-4-yl)propoxy)-2,6-difluorophenyl)-5-methyl-4,5-dihydrooxazole]",44.6,150,–,–,> 40
"CCc1cnc(N2CCC(CCCOc3cc(F)c(C4=NC[C@H](CO)O4)c(F)c3)CC2)nc1 [Example 7, (R)-(2-(4-(3-(1-(5-ethylpyrimidin-2-yl)piperidin-4-yl)propoxy)-2,6-difluorophenyl)-4,5-dihydrooxazol-5-yl)methanol]",51.3,170,–,–,< 30
"CC(C)c1noc(N2CCC(CCCOc3cc(F)c(C4=NC[C@H](C)O4)c(F)c3)CC2)n1 [Example 11, (S)-5-(4-(3-(3,5-difluoro-4-(5-methyl-4,5-dihydrooxazol-2-yl)phenoxy)propyl)piperidin-1-yl)-3-isopropyl-1,2,4-oxadiazole]",184,266,–,–,< 30
"CC(C)c1noc(N2CCC(CCCOc3cc(F)c(C4=NCC(C)(C)O4)c(F)c3)CC2)n1 [Example 12, 5-(4-(3-(4-(5,5-dimethyl-4,5-dihydrooxazol-2-yl)-3,5-difluorophenoxy)propyl)piperidin-1-yl)-3-isopropyl-1,2,4-oxadiazole]",116,232,–,–,> 40
"CC(C)c1noc(N2CCC(CCCOc3cc(F)c(-c4noc(C(C)C)n4)c(F)c3)CC2)n1 [Example 40, 3-(2,6-difluoro-4-(3-(1-(3-isopropyl-1,2,4-oxadiazol-5-yl)piperidin-4-yl)propoxy)phenyl)-5-isopropyl-1,2,4-oxadiazole]",63.7,206,–,–,30 to 40
"Cc1nnc(-c2c(F)cc(OCCCC3CCN(c4ncc(C(F)(F)F)cn4)CC3)cc2F)o1 [Example 46, 2-(2,6-difluoro-4-(3-(1-(5-(trifluoromethyl)pyrimidin-2-yl)piperidin-4-yl)propoxy)phenyl)-5-methyl-1,3,4-oxadiazole]",209,239,–,–,> 40
"CCc1nnc(-c2c(F)cc(OCCCC3CCN(c4ncc(C(F)(F)F)cn4)CC3)cc2F)o1 [Example 47, 2-(2,6-difluoro-4-(3-(1-(5-(trifluoromethyl)pyrimidin-2-yl)piperidin-4-yl)propoxy)phenyl)-5-ethyl-1,3,4-oxadiazole]",66,218,–,–,> 40

# More lines, main results first:
Emax at 0.001 µM (Human GPR119; 1 nM) [%],Emax at 0.01 µM (Human GPR119; 10 nM) [%],hGPR119 activation ability (cAMP assay) Relative Response % vs OEA (Human GPR119; 1 nM) [%],hGPR119 activation ability (cAMP assay) Relative Response % vs OEA (Human GPR119; 10 nM) [%],SMILES,inhibition in vivo at 10 mg/kg (C57BL/6 mouse) [%]
49.4,126,–,–,"CCc1cnc(N2CCC(CCCOc3cc(F)c(-c4noc(C)n4)c(F)c3)CC2)nc1 [Example 13, 3-(4-(3-(1-(5-ethylpyrimidin-2-yl)piperidin-4-yl)propoxy)-2,6-difluorophenyl)-5-methyl-1,2,4-oxadiazole]",30 to 40
–,–,87.7,183.8,"CCc1cnc(N2CCC(CCCOc3cc(F)c(-c4noc(C(C)C)n4)c(F)c3)CC2)nc1 [Example 15, 3-(4-(3-(1-(5-ethylpyrimidin-2-yl)piperidin-4-yl)propoxy)-2,6-difluorophenyl)-5-isopropyl-1,2,4-oxadiazole]",> 40
46.5,313,–,–,"CCc1cnc(N2CCC(CCCOc3cc(F)c(-c4noc([C@@H](O)CC)n4)c(F)c3)CC2)nc1 [Example 19, (S)-1-(3-(4-(3-(1-(5-ethylpyrimidin-2-yl)piperidin-4-yl)propoxy)-2,6-difluorophenyl)-1,2,4-oxadiazol-5-yl) propan-1-ol]",30 to 40
54.9,178,–,–,"CCc1cnc(N2CCC(CCCOc3cc(F)c(-c4noc(C(C)(C)CO)n4)c(F)c3)CC2)nc1 [Example 22, 2-(3-(4-(3-(1-(5-ethylpyrimidin-2-yl)piperidin-4-yl)propoxy)-2,6-difluorophenyl)-1,2,4-oxadiazol-5-yl)-2-methylpropan-1-ol]",30 to 40
78.3,141,–,–,"CCCc1cnc(N2CCC(CCCOc3cc(F)c(-c4noc(C(C)C)n4)c(F)c3)CC2)nc1 [Example 23, 3-(2,6-difluoro-4-(3-(1-(5-propylpyrimidin-2-yl)piperidin-4-yl)propoxy)phenyl)-5-isopropyl-1,2,4-oxadiazole]",> 40
132,309,–,–,"CCCCCc1cnc(N2CCC(CCCOc3cc(F)c(-c4noc(C(C)C)n4)c(F)c3)CC2)nc1 [Example 24, 3-(2,6-difluoro-4-(3-(1-(5-pentylpyrimidin-2-yl)piperidin-4-yl)propoxy)phenyl)-5-isopropyl-1,2,4-oxadiazole]",< 30
159,274,–,–,"CC(C)c1nc(-c2c(F)cc(OCCCC3CCN(c4ncc(C(F)(F)F)cn4)CC3)cc2F)no1 [Example 25, 3-(2,6-difluoro-4-(3-(1-(5-(trifluoromethyl)pyrimidin-2-yl)piperidin-4-yl)propoxy)phenyl)-5-isopropyl-1,2,4-oxadiazole]",< 30
23.8,115,–,–,"CC(C)c1nc(-c2c(F)cc(OCCCC3CCN(c4ncc(Cl)cn4)CC3)cc2F)no1 [Example 28, 3-(4-(3-(1-(5-chloropyrimidin-2-yl)piperidin-4-yl)propoxy)-2,6-difluorophenyl)-5-isopropyl-1,2,4-oxadiazole]",< 30
102,120,–,–,"CC(C)c1nc(-c2c(F)cc(OCCCC3CCN(c4ccc(C(F)(F)F)cn4)CC3)cc2F)no1 [Example 38, 3-(2,6-difluoro-4-(3-(1-(5-(trifluoromethyl)pyridin-2-yl)piperidin-4-yl)propoxy)phenyl)-5-isopropyl-1,2,4-oxadiazole]",< 30
127,150,–,–,"CCc1cnc(N2CCC(CCCOc3cc(F)c(-c4nnc(C)o4)c(F)c3)CC2)nc1 [Example 42, 2-(4-(3-(1-(5-ethylpyrimidin-2-yl)piperidin-4-yl)propoxy)-2,6-difluorophenyl)-5-methyl-1,3,4-oxadiazole]",> 40
260,538,–,–,"CCc1cnc(N2CCC(CCCOc3cc(F)c(-c4nnc(CC)o4)c(F)c3)CC2)nc1 [Example 43, 2-ethyl-5-(4-(3-(1-(5-ethylpyrimidin-2-yl)piperidin-4-yl)propoxy)-2,6-difluorophenyl)-1,3,4-oxadiazole]",> 40

# — patent US10428055B2, “Substituted piperidines having GPR119 agonistic activity” (DONG-A ST CO., LTD., priority 2014, dated 2019)
